In patent publication US7138241B2, “Hybridoma, an antibody resistant to an interfering substance, and a kit for immunological analysis” (Japan Envirochemicals, Ltd., priority 2001, dated 2006):

Tested on: EE2-227 antibody
Test: Cross-reactivity test with the EE2-ELISA kit
Assay type: binding, mouse
Details: from IC50 (50% degree of inhibition) of each estrogen's standard curve relative to EE2
Description: 100 μL/well of a quantification sample or the “EE2 standard solution” (both are 10% methanol solutions) and 100 μL/well of the “antigen-enzyme conjugate solution” were mixed on a “mixing microplate”.
The “mixed solution” prepared in (3) was pipetted into the “anti-EE2 monoclonal antibody-immobilized plate” in a volume of 100 μl/well and reacted at room temperature for 60 minutes.
The “coloration reagent” prepared in (7) was added in the volume of 100 μL/well, the mixture was reacted at room temperature for 30 minutes, and the “coloration-stop solution” was added in a volume of 100 μL/well to stop the reaction.
The absorbance was measured at a wavelength of 450 nm with a plate reader, and the concentration of EE2 in the sample was determined from a standard curve.
The EE2 concentration was plotted on the ordinate [sic], and the ratio of the absorbance at each EE2 concentration to the absorbance at the concentration of 0 μg/L EE2 (degree of inhibition, B/BO %) was plotted on the abscissa [sic].
For the estrogens shown in [Table 2], the respective standard curves were prepared in the same manner as in Example 4, and the EE2 concentration (IC50) at which the degree of inhibition was 50% was determined and the cross-reactivity was determined from the following equation, and the results are shown in [Table 2]. Cross-reactivity (%)=[…]

SMILES | Cross-reactivity (%) of EE2-227 antibody [%]
COc1cc2c(cc1O)CC[C@@H]1[C@@H]2CC[C@]2(C)C(=O)CC[C@@H]12 [2-Methoxy E1] | <0.2
C[C@]12CC[C@@H]3c4ccc(O)cc4CC[C@H]3[C@@H]1C[C@H](O)[C@@H]2O [16-Epi-E3] | <0.2
C[C@]12CC[C@@H]3c4ccc(O)cc4CC[C@H]3[C@@H]1CC[C@@H]2O [17β-Estradiol (E2), 17β-Estradiol] | <0.2
C[C@]12CC[C@@H]3c4ccc(O[C@@H]5O[C@H](C(=O)O)[C@@H](O)[C@H](O)[C@H]5O)cc4CC[C@H]3[C@@H]1CC[C@@H]2O [E2-3-glucuronide] | <0.2
C[C@]12CC[C@@H]3c4ccc(OS(=O)(=O)O)cc4CC[C@H]3[C@@H]1CC[C@@H]2O[C@@H]1O[C@H](C(=O)O)[C@@H](O)[C@H](O)[C@H]1O [E2-3-sulfate-17-glucuronide] | <0.2
C[C@]12CC[C@@H]3c4ccc(O)cc4CC[C@H]3[C@@H]1CC[C@@H]2O[C@@H]1O[C@H](C(=O)O)[C@@H](O)[C@H](O)[C@H]1O [E2-17-glucuronide] | <0.2
C[C@]12CC[C@@H]3c4ccc(O)cc4CC[C@H]3[C@@H]1C[C@@H](O[C@@H]1O[C@H](C(=O)O)[C@@H](O)[C@H](O)[C@H]1O)[C@@H]2O [E3-16-glucuronide] | <0.2
C[C@]12CC[C@@H]3c4ccc(O)cc4CC[C@H]3[C@@H]1C[C@@H](O)[C@@H]2O [Estriol (E3), Estriol] | <0.2
C#C[C@]1(O)CC[C@H]2[C@@H]3CCc4cc(O)ccc4[C@H]3CC[C@@]21C [Ethynylestradiol (EE2), Ethynylestradiol] | 100.0
